Test results reported in PMC2196313 (The Journal of Experimental Medicine, 1997).

Key:
CTL clone E8 [1] = format: cell-based, mouse (C57BL/6)
CTL clone E8 [2] = format: cell-based, mouse (C57BL/6); remark: listed apart in the source
TCR of CTL clone G9a = format: cell-based, mouse (C57BL/6)
CTL clone 4G3 = format: cell-based, mouse
CTL clone B3 = conditions: cited from earlier work

Substance | cold target inhibition of lysis by clone E8 (CTL clone E8 [1]) | inhibition of specific target cell lysis by clone E8 (CTL clone E8 [2]) | inhibition of agonist-induced loss of surface TCR on clone G9a (TCR of CTL clone G9a) | inhibition of specific target cell lysis by clone 4G3 (CTL clone 4G3) | antagonism for clone B3 (CTL clone B3)
SIIR FEK ^* L [O7(N4R)] | indistinguishable from RMA cells without added peptide | no effect within the concentration range tested | had no effect |  | 
SIIG FEK ^* L [O7(N4G)] |  | comparatively poor inhibitors |  | most sensitive | potent antagonist
